In one experiment the target is T1, c-kit (Homo sapiens, UniProt P10721).
T1 construct: MO7e (human megakaryocytic leukemia cell line) which had been arrested for 20 hr; endogenous in cells; host or cells: MO7e human megakaryocytic leukemia cell line
The experiment in a line: Inhibitory activity against c-kit autophosphorylation (MO7e cells, h-SCF). The experiment is classed as cell-based. Conditions: for IC50: MO7e cells, read-out: c-kit IC50; for inhibition at 1 µM: Mo7e, figure in parentheses in −( ). An outline of the steps: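 First, human megakaryocytic leukemia MO7e cells arrested 20 hr receive compound for one hour. Second, SCF stimulation (50 ng/ml) runs 5 min, after which cells are solubilized. Third, tyrosine-phosphorylated c-kit in the lysate is quantified by sandwich ELISA with absorbance at 450 nm.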

The next experiment has as its target T2, PDGF-Ra (Homo sapiens, UniProt P16234).
T2 construct: host or cells: G-292 human osteosarcoma cells
Description: Inhibitory activity against PDGF-Ra phosphorylation by PDGF-AA stimulation using G292. The experiment is classed as cell-based. Conditions: for IC50: > means inhibition at indicated concentration not more than 50%, < and << not less than 50%, read-out: PDGF (E) IC50. The method in brief: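 Read-out: A450 from a sandwich ELISA (PY-20 capture, anti-PDGF-Ra detection, peroxidase colour) of lysates from G-292 cells given compound for 1 hr at 37 °C before a 5 min challenge with PDGF-AA at 50 ng/ml.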

Like-named read-outs stand apart in the source and are kept apart here. Bounds are passed on as bounds.

T1 sequence (P10721 26-976): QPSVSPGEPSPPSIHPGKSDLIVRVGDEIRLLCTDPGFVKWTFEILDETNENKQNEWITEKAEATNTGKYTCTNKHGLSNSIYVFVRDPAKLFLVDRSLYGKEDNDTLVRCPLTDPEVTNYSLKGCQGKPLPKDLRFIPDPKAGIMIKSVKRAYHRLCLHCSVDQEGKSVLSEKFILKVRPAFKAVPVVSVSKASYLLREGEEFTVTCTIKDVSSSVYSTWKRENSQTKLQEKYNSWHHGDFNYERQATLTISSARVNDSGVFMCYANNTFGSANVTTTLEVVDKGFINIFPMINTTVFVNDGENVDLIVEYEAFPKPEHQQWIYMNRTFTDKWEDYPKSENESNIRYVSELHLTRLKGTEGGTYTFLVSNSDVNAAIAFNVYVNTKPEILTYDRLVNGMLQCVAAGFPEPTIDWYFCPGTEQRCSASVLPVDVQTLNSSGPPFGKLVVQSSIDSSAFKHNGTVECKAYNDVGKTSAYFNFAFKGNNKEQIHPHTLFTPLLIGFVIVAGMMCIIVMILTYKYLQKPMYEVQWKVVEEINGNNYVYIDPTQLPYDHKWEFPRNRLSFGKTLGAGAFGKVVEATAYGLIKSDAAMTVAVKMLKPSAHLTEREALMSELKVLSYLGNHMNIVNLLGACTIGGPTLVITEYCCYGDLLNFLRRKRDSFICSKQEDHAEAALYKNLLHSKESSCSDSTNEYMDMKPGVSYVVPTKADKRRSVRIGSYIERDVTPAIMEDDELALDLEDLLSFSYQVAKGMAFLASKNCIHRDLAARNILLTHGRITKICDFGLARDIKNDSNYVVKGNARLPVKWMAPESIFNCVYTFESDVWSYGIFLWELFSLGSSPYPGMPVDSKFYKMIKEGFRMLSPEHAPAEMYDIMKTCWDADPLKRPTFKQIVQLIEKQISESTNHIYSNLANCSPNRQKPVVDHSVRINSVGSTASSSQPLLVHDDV
T2 sequence (P16234 24-1089): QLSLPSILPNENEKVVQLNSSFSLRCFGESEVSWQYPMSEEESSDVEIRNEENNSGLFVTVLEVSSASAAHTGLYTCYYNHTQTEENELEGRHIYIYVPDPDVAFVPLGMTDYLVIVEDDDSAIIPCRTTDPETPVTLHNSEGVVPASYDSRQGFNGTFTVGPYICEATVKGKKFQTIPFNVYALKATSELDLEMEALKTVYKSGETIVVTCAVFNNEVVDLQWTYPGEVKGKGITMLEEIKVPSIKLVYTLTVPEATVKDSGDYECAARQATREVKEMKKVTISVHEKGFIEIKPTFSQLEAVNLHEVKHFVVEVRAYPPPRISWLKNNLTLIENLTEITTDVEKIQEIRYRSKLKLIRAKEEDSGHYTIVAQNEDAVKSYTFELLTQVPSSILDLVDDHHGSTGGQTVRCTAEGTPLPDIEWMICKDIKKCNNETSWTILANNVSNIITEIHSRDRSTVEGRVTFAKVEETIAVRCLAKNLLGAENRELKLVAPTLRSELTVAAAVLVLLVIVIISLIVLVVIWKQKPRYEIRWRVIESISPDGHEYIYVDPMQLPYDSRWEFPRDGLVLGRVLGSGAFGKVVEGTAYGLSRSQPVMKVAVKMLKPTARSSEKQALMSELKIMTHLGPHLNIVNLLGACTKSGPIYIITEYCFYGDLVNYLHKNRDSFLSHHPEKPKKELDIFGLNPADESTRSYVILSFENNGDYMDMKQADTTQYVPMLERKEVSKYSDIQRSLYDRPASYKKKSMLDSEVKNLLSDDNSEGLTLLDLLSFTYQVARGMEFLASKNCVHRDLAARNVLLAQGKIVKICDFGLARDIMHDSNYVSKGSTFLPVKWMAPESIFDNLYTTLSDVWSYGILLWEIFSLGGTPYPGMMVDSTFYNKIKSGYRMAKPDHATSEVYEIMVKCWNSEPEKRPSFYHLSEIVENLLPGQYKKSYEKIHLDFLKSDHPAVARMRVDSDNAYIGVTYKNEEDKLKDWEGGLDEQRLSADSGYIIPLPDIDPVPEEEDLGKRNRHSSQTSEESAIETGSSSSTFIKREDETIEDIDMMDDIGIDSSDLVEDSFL

As usually defined, the IC50 is the concentration that gives 50% inhibition. As to `COc1cc2ncnc(Oc3ccc(NC(=S)NC(=O)c4ccccc4C)c(N4CCOCC4)c3)c2cc1OC` [Example 1151, N-{4-[(6,7-Dimethoxy-4-quinazolinyl)oxy]-2-morpholinophenyl}-N′-(2-methylbenzoyl)thiourea], the IC50 is 146 nM on c-kit (h-SCF stimulation) and less than 10 nM on PDGF-Ra.

Usually inhibition stands for the relative decrease from the control value, in per cent. Regarding `COc1cc2nccc(Oc3ccc(NC(=S)NC(=O)c4ccc(CN5CCOCC5)cc4)cc3)c2cc1OC` [Example 1153, N-{4-[(6,7-Dimethoxy-4-quinolyl)oxy]phenyl}-N′-[4-(morpholinomethyl)benzoyl]thiourea], the inhibition at 1 µM on c-kit (at 1000 nM) is 13%. Moreover, the half-inhibitory concentration (IC50) on PDGF-Ra was determined as 43 nM.

Take `COc1cc2ncnc(Oc3ccc(NC(=S)NC(=O)c4ccc(C)nc4)cc3)c2cc1OC` [Example 1154, N-{4-[(6,7-Dimethoxy-4-quinazolinyl)oxy]phenyl}-N′-[(6-methyl-3-pyridyl)carbonyl]thiourea]: the inhibition at 1 µM at c-kit (at 1000 nM) was found to be 21%. Also, the IC50 on PDGF-Ra was determined as 49 nM.

Regarding `COc1cc2ncnc(Oc3ccc(NC(=S)NC(=O)c4ccncc4)cc3)c2cc1OC` [Example 1155, N-{4-[(6,7-Dimethoxy-4-quinazolinyl)oxy]phenyl}-N′-(4-pyridylcarbonyl)thiourea], the inhibition at 1 µM at c-kit (at 1000 nM) is 31%. Also, the IC50 on PDGF-Ra worked out at 17 nM.

Consider `COc1cc2ncnc(Oc3ccc(NC(=S)NC(=O)c4ccccn4)cc3)c2cc1OC` [Example 1156, N-{4-[(6,7-Dimethoxy-4-quinazolinyl)oxy]phenyl}-N′-(2-pyridylcarbonyl)thiourea], for which the inhibition at 1 µM on c-kit (at 1000 nM) was found to be 28%. In addition, the IC50 at PDGF-Ra was greater than 100 nM. For the same compound, the inhibition at 0.1 µM on PDGF-Ra (G292, figure in parentheses in >100( ), at 100 nM, read-out: PDGF (E) inhibition (%) at 100 nM) was 35%.

For the compound `COc1cc2nccc(Oc3ccc(NC(=S)NC(=O)C4CCCCC4)cc3Cl)c2cc1OC` [Example 1179, N-{3-Chloro-4-[(6,7-dimethoxy-4-quinolyl)oxy]phenyl}-N′-cyclohexylcarbonylthiourea], the IC50 on c-kit (h-SCF stimulation) was determined as 327 nM; on PDGF-Ra, 14 nM.

`COc1cc2ncnc(Oc3ccc(NC(=S)NC(=O)C4CCCCC4)cc3)c2cc1OC` [Example 1180, N-Cyclohexylcarbonyl-N′-{4-[(6,7-dimethoxy-4-quinazolinyl)oxy]phenyl}thiourea]: the IC50 at c-kit (h-SCF stimulation) is 480 nM; on PDGF-Ra it was less than 10 nM.

As for `COc1cc2ncnc(Oc3ccc(NC(=S)NC(=O)C4CC4)cc3)c2cc1OC` [Example 1181, N-Cyclopropylcarbonyl-N′-{4-[(6,7-dimethoxy-4-quinazolinyl)oxy]phenyl}thiourea], the inhibition at 1 µM on c-kit (at 1000 nM) came out at 26%. Moreover, at PDGF-Ra, the 50% inhibitory concentration (IC50) turned out to be 35 nM.

Regarding `COc1cc2nccc(Oc3ccc(NC(=S)NC(=O)C4CCCC4)cc3Cl)c2cc1OC` [Example 1182, N-{3-Chloro-4-[(6,7-dimethoxy-4-quinolyl)oxy]phenyl}-N′-cyclopentylcarbonylthiourea], the IC50 is 206 nM at c-kit (h-SCF stimulation) and less than 10 nM on PDGF-Ra.

Take `COc1cc2ncnc(Oc3ccc(NC(=S)NC(=O)C4CCCC4)cc3)c2cc1OC` [Example 1183, N-Cyclopentylcarbonyl-N′-{4-[(6,7-dimethoxy-4-quinazolinyl)oxy]phenyl}thiourea]: the results for the concentration for half-maximal inhibition (IC50) at c-kit (h-SCF stimulation) and at PDGF-Ra were 427 nM and less than 10 nM, respectively.

On to `COc1cc2ncnc(Oc3ccc(NC(=S)NC(=O)CCc4cccc(C)c4)cc3)c2cc1OC` [Example 1185, N-{4-[(6,7-Dimethoxy-4-quinazolinyl)oxy]phenyl}-N′-[3-(3-methylphenyl)propanoyl]thiourea], for which the inhibition at 1 µM on c-kit (at 1000 nM) came to 26%. Besides, the IC50 on PDGF-Ra is 13 nM.

For `COc1cc2ncnc(Oc3ccc(NC(=S)NC(=O)CCCCl)cc3)c2cc1OC` [Example 1186, N-(4-Chlorobutanoyl)-N′-{4-[(6,7-dimethoxy-4-quinazolinyl)oxy]phenyl}thiourea], the IC50 at c-kit (h-SCF stimulation) was 405 nM; on PDGF-Ra, less than 10 nM.

In the case of `CCCCCC(=O)NC(=S)Nc1ccc(Oc2ncnc3cc(OC)c(OC)cc23)cc1` [Example 1189, N-{4-[(6,7-Dimethoxy-4-quinazolinyl)oxy]phenyl}-N′-hexanoylthiourea], the IC50 at c-kit (h-SCF stimulation) was found to be 73 nM; at PDGF-Ra it was 26 nM.

`COc1cc2nccc(Oc3ccc(NC(=S)NC(=O)C4CC4C)cc3Cl)c2cc1OC` (centres unmarked) [Example 1190, N-{3-Chloro-4-[(6,7-dimethoxy-4-quinolyl)oxy]phenyl}-N′-[(2-methylcyclopropyl)carbonyl]thiourea]: the IC50 is 240 nM on c-kit (h-SCF stimulation) and 24 nM on PDGF-Ra.

On to `COc1cc2ncnc(Oc3ccc(NC(=S)NC(=O)C4CC4C)cc3)c2cc1OC` (centres unmarked) [Example 1191, N-{4-[(6,7-Dimethoxy-4-quinazolinyl)oxy]phenyl}-N′-[(2-methylcyclopropyl)carbonyl]thiourea], for which the IC50 at c-kit (h-SCF stimulation) amounted to 193 nM; at PDGF-Ra, 31 nM.

`COc1cc2nccc(Oc3ccc(NC(=S)NC(=O)C4(C)CCCCC4)cc3Cl)c2cc1OC` [Example 1192, N-{3-Chloro-4-[(6,7-dimethoxy-4-quinolyl)oxy]phenyl}-N′-[(1-methylcyclohexyl)carbonyl]thiourea]: the half-inhibitory concentration (IC50) stood at 672 nM at c-kit (h-SCF stimulation) and 19 nM on PDGF-Ra.

For the compound `COc1cc2ncnc(Oc3ccc(NC(=S)NC(=O)C4(C)CCCCC4)cc3)c2cc1OC` [Example 1193, N-{4-[(6,7-Dimethoxy-4-quinazolinyl)oxy]phenyl}-N′-[(1-methylcyclohexyl)carbonyl]thiourea], on c-kit (at 1000 nM), the inhibition at 1 µM was determined as 18%. Also, the IC50 on PDGF-Ra was less than 10 nM.

Turning to `COc1cc2ncnc(Oc3ccc(NC(=S)NC(=O)C4(c5ccccc5)CC4)cc3)c2cc1OC` [Example 1195, N-{4-[(6,7-Dimethoxy-4-quinazolinyl)oxy]phenyl}-N′-[(1-phenylcyclopropyl)carbonyl]thiourea], the IC50 came out at 530 nM at c-kit (h-SCF stimulation) and 21 nM on PDGF-Ra.

`CCCC1CCC(C(=O)NC(=S)Nc2ccc(Oc3ccnc4cc(OC)c(OC)cc34)c(Cl)c2)CC1` (centres unmarked) [Example 1196, N-{3-Chloro-4-[(6,7-dimethoxy-4-quinolyl)oxy]phenyl}-N′-[(4-propylcyclohexyl)carbonyl]thiourea]: the values for the IC50 at c-kit (h-SCF stimulation) and at PDGF-Ra were 700 nM and greater than 100 nM, respectively.

On to `CCCC1CCC(C(=O)NC(=S)Nc2ccc(Oc3ncnc4cc(OC)c(OC)cc34)cc2)CC1` (centres unmarked) [Example 1197, N-{4-[(6,7-Dimethoxy-4-quinazolinyl)oxy]phenyl}-N′-[(4-propylcyclohexyl)carbonyl]thiourea], for which the concentration for half-maximal inhibition (IC50) on c-kit (h-SCF stimulation) turned out to be 219 nM; on PDGF-Ra, 25 nM.

Turning to `COc1cc2nccc(Oc3ccc(NC(=S)NC(=O)CCCCl)cc3Cl)c2cc1OC` [Example 1198, N-(4-Chlorobutanoyl)-N′-{3-chloro-4-[(6,7-dimethoxy-4-quinolyl)oxy]phenyl}thiourea], the figures for the IC50 on c-kit (h-SCF stimulation) and on PDGF-Ra were 247 nM and less than 10 nM, respectively.

Consider `CCCC(C)C(=O)NC(=S)Nc1ccc(Oc2ccnc3cc(OC)c(OC)cc23)c(Cl)c1` (centres unmarked) [Example 1200, N-{3-Chloro-4-[(6,7-dimethoxy-4-quinolyl)oxy]phenyl}-N′-(2-methylpentanoyl)thiourea], for which the half-maximal inhibitory concentration (IC50) at c-kit (h-SCF stimulation) turned out to be 716 nM; on PDGF-Ra, 25 nM.

With `CCCC(C)C(=O)NC(=S)Nc1ccc(Oc2ncnc3cc(OC)c(OC)cc23)cc1` (centres unmarked) [Example 1201, N-{4-[(6,7-Dimethoxy-4-quinazolinyl)oxy]phenyl}-N′-(2-methylpentanoyl)thiourea], the IC50 on c-kit (h-SCF stimulation) is 450 nM; at PDGF-Ra, less than 10 nM.

`COc1cc2nccc(Oc3ccc(NC(=S)NC(=O)c4ccc(F)cc4F)c(Cl)c3)c2cc1OC` [Example 1202, N-{2-Chloro-4-[(6,7-dimethoxy-4-quinolyl)oxy]phenyl}-N′-(2,4-difluorobenzoyl)thiourea]: the inhibition at 1 µM on c-kit (at 1000 nM) was found to be 15%. In addition, the IC50 on PDGF-Ra was found to be 50 nM.

In the case of `COc1ccc(C(=O)NC(=S)Nc2ccc(Oc3ccnc4cc(OC)c(OC)cc34)c(Cl)c2)cc1OC` [Example 1204, N-{3-Chloro-4-[(6,7-dimethoxy-4-quinolyl)oxy]phenyl}-N′-(3,4-dimethoxybenzoyl)thiourea], the IC50 worked out at 434 nM on c-kit (h-SCF stimulation) and 18 nM at PDGF-Ra.

Turning to “N-{4-[(6,7-Dimethoxy-4-quinolyl)oxy]-2,3-dimethylphenyl}-N′-[3-(1-piperidinyl)propyl]thiourea [Example 558]”, the figures for the IC50 on c-kit (50 ng/ml h-SCF) and at PDGF-Ra were 724 nM and 73 nM, respectively.

For “N-{4-[(6,7-Dimethoxy-4-quinolyl)oxy]-2-chlorophenyl}-N′-(1-piperidinyl)urea [Example 595]”, the “c-kit inhibition (%) at 1000 nM” value at c-kit (figure within parentheses in −( ) or >1000( ), at 1000 nM) is given as “−(0) %”. For the same compound, on PDGF-Ra, the concentration for half-maximal inhibition (IC50) is 46 nM.

Consider “N-{4-[(6,7-Dimethoxy-4-quinolyl)oxy]-2-chlorophenyl}-N′-[4-(N-benzyl)piperidinyl]urea [Example 605]”, for which the IC50 at c-kit (50 ng/ml h-SCF) worked out at 394 nM; at PDGF-Ra, 31 nM.

On to “N-{4-[(6,7-Dimethoxy-4-quinolyl)oxy]-2-methoxyphenyl}-N′-(1-homopiperidinyl)urea [Example 600]”, for which the IC50 was 208 nM on c-kit (50 ng/ml h-SCF) and less than 10 nM at PDGF-Ra.

These data come from patent publication US7135466B2 (Kirin Beer Kabushiki Kaisha, priority 1999, dated 2006).
